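Values below derive from 48-hour exposures of cells grown in 96-well plates, with endpoints linearly interpolated between the two concentrations bracketing the appropriate inhibition level. At the GI50, growth is halved.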 Calls of active or inactive are those of the source. No stated cut-off is given here; in the data, active = GI50 up to about 1.1 µM and inactive = higher.
Experiments:
Test in all cases: inhibition of tumour cell growth, NCI panel, 48 h
HOP-92 = system: HOP-92
RXF 393 = system: RXF 393
MCF7 = system: MCF7
HCT-15 = system: HCT-15
SW-620 = system: SW-620
DU-145 = system: DU-145
NCI-H23 = system: NCI-H23
PC-3 = system: PC-3
SF-539 = system: SF-539
U-251 = system: U-251
TK-10 = system: TK-10
SF-268 = system: SF-268
KM12 = system: KM12
OVCAR-8 = system: OVCAR-8
T47D = system: T47D
NCI-H460 = system: NCI-H460
NCI/ADR-RES = system: NCI/ADR-RES
ACHN = system: ACHN
SK-OV-3 = system: SK-OV-3

Row | Compound | GI50 (HOP-92) | GI50 (RXF 393) | GI50 (MCF7) | GI50 (HCT-15) [µM] | GI50 (SW-620) | GI50 (DU-145) | GI50 (NCI-H23) | GI50 (PC-3) | GI50 (SF-539) | GI50 (U-251) | GI50 (TK-10) | GI50 (SF-268) | GI50 (KM12) | GI50 (OVCAR-8) | GI50 (T47D) | GI50 (NCI-H460) | GI50 (NCI/ADR-RES) | GI50 (ACHN) | GI50 (SK-OV-3)
1 | OC1(c2ccc(Cl)cc2)c2c(c3ccccc3c3ccccc23)C2=NCCN21 (centres undefined) | 16.6 µM (inactive) | 11.4 µM (inactive) | 14.6 µM (inactive) | 24.3 | 12.6 µM (inactive) | 17.4 µM (inactive) | 11.6 µM (inactive) | 14.6 µM (inactive) | 11.2 µM (inactive) | 12.8 µM (inactive) | 4.98 µM (inactive) | 10.6 µM (inactive) | 16.7 µM (inactive) | 11.9 µM (inactive) | 15.4 µM (inactive) | 15.8 µM (inactive) | 11.5 µM (inactive) | 14.5 µM (inactive) | 16.4 µM (inactive)
2 | Cc1ccccc1/N=N/c1c(O)c(S(=O)(=O)O)cc2cc(S(=O)(=O)O)ccc12 | > 100 µM (inactive) | > 100 µM (inactive) | > 100 µM (inactive) | > 100 | > 100 µM (inactive) | > 100 µM (inactive) | > 100 µM (inactive) | > 100 µM (inactive) | > 100 µM (inactive) | > 100 µM (inactive) | > 100 µM (inactive) | > 100 µM (inactive) | > 100 µM (inactive) | > 100 µM (inactive) | > 100 µM (inactive) | > 100 µM (inactive) | > 100 µM (inactive) | > 100 µM (inactive) | > 100 µM (inactive)
3 | S=C(N/N=C/c1ccccn1)N1CC2CCC(CC2)C1 | 0.0568 µM (active) | 0.0703 µM (active) | < 0.01 µM (active) | < 0.01 | < 0.01 µM (active) | 0.0471 µM (active) | < 0.01 µM (active) | < 0.01 µM (active) | < 0.0229 µM (active) | < 0.01 µM (active) | < 0.01 µM (active) | 0.0301 µM (active) | < 0.01 µM (active) | < 0.01 µM (active) | < 0.01 µM (active) | < 0.01 µM (active) | < 0.01 µM (active) | < 0.01 µM (active) | < 0.01 µM (active)
4 | CCc1nc(N)nc(N)c1-c1ccc(Cl)c([N+]#N)c1 | > 100 µM (inactive) | > 100 µM (inactive) | > 100 µM (inactive) | 28.8 | 36.5 µM (inactive) | 80.2 µM (inactive) | 28.5 µM (inactive) | 61.7 µM (inactive) | 44.3 µM (inactive) | 64.3 µM (inactive) | > 100 µM (inactive) | > 100 µM (inactive) | 38.1 µM (inactive) | 66.8 µM (inactive) | > 100 µM (inactive) | 37.8 µM (inactive) | 49.8 µM (inactive) | 39.4 µM (inactive) | > 100 µM (inactive)
5 | CO/C(=N\N=C\c1cccc(C(F)(F)F)c1)c1ccncc1 | 23.3 µM (inactive) | 6.64 µM (inactive) | 2.52 µM (inactive) | 2.45 | 4.6 µM (inactive) | 7.85 µM (inactive) | 12 µM (inactive) | 40.7 µM (inactive) | 4.67 µM (inactive) | 5.14 µM (inactive) | 17.5 µM (inactive) | 8.05 µM (inactive) | 5.19 µM (inactive) | 9.46 µM (inactive) | 37.2 µM (inactive) | 4.97 µM (inactive) | 1.82 µM (inactive) | 8.13 µM (inactive) | 6.89 µM (inactive)
6 | O=[N+]([O-])c1ccc(C(=S)Nc2ccccc2)o1 | 15.3 µM (inactive) | 4.14 µM (inactive) | 2.05 µM (inactive) | 2.07 | 1.27 µM (inactive) | 6.41 µM (inactive) | 3.35 µM (inactive) | 1.79 µM (inactive) | 1.58 µM (inactive) | 1.48 µM (inactive) | 4.74 µM (inactive) | 3.36 µM (inactive) | 2.38 µM (inactive) | 2.51 µM (inactive) | 4.33 µM (inactive) | 3.19 µM (inactive) | 2.16 µM (inactive) | 2.36 µM (inactive) | 11.4 µM (inactive)
7 | C=CC(=O)NCCC(=O)OCn1cc(F)c(=O)[nH]c1=O | 8.49 µM (inactive) | 10.1 µM (inactive) | 1.2 µM (inactive) | 6.14 | 17.2 µM (inactive) | 3.64 µM (inactive) | 7.01 µM (inactive) | 9.12 µM (inactive) | 2.65 µM (inactive) | 18 µM (inactive) | 0.838 µM (active) | 18.7 µM (inactive) | 5.48 µM (inactive) | 11.5 µM (inactive) | 83.2 µM (inactive) | 0.434 µM (active) | 27 µM (inactive) | 5.02 µM (inactive) | 16.3 µM (inactive)
8 | COc1ccc(CCNC(=O)CCc2ccccc2CO)cc1OC | > 100 µM (inactive) | > 100 µM (inactive) | > 100 µM (inactive) | > 100 | > 100 µM (inactive) | > 100 µM (inactive) | > 100 µM (inactive) | > 100 µM (inactive) | > 100 µM (inactive) | > 100 µM (inactive) | > 100 µM (inactive) | > 100 µM (inactive) | > 100 µM (inactive) | > 100 µM (inactive) | > 100 µM (inactive) | > 100 µM (inactive) | > 100 µM (inactive) | > 100 µM (inactive) | > 100 µM (inactive)
9 | COc1cc(/C=C/c2cc(=O)cc(/C=C/c3ccc(O)c(OC)c3)o2)ccc1O | 17.9 µM (inactive) | 15.9 µM (inactive) | 6.27 µM (inactive) | 60.4 | > 35.5 µM (inactive) | 31 µM (inactive) | 59.7 µM (inactive) | > 85.9 µM (inactive) | > 62.5 µM (inactive) | 25.5 µM (inactive) | > 75.5 µM (inactive) | 38 µM (inactive) | > 38.3 µM (inactive) | 46.2 µM (inactive) | 15.3 µM (inactive) | 44 µM (inactive) | 98.4 µM (inactive) | 48.1 µM (inactive) | 76.4 µM (inactive)
10 | CCOP(=O)(O)C(Nc1ccc(/N=N/c2ccccc2)cc1)c1ccc(C(Nc2ccc(/N=N/c3ccccc3)cc2)P(=O)(O)OCC)cc1 (centres undefined) | 22.1 µM (inactive) | 25.2 µM (inactive) | 48.3 µM (inactive) | 19.7 | 16.7 µM (inactive) | > 100 µM (inactive) | 29.2 µM (inactive) | 17.1 µM (inactive) | 19.2 µM (inactive) | 18.1 µM (inactive) | 36.2 µM (inactive) | 20.4 µM (inactive) | 16.5 µM (inactive) | 16.3 µM (inactive) | 15.3 µM (inactive) | 22 µM (inactive) | 27.4 µM (inactive) | > 100 µM (inactive) | 18.7 µM (inactive)
11 | COc1cc(/N=C(\N)N=C(N)N)c2ncccc2c1 | 67 µM (inactive) | > 100 µM (inactive) | > 100 µM (inactive) | > 100 | > 100 µM (inactive) | > 100 µM (inactive) | 80.7 µM (inactive) | > 100 µM (inactive) | 46.8 µM (inactive) | 38 µM (inactive) | > 100 µM (inactive) | 98.2 µM (inactive) | 45.3 µM (inactive) | > 100 µM (inactive) | 29.9 µM (inactive) | > 100 µM (inactive) | > 100 µM (inactive) | > 100 µM (inactive) | > 100 µM (inactive)
